Consider one molecule from publication PMC8365602 (Journal of Medicinal Chemistry, 2021).

Series [1] has as its system 15-LOX. Nature of the series: 15-LOX product formation in activated PMNL. The series is classed as cell-based, human.
Procedure: Freshly isolated PMNL (5 × 10^6) suspended in PBS pH 7.4 with 1 mg/mL glucose or freshly withdrawn human whole blood were preincubated with the test compounds for 10 min (or as indicated) at 37 °C. […] The reaction was stopped with an equal volume of methanol.
The target of series [2] is T1, COX-1 (Homo sapiens, UniProt P23219).
T1 construct: Freshly isolated platelets (1 × 10^8) were preincubated with vehicle (DMSO) or 27a; endogenous in cells; host or cells: freshly isolated human platelets
As to the kind of experiment: Platelet COX-1 activity (12-HHT formation). The series is classed as cell-based. Here is the method: Freshly isolated platelets (1 × 10^8) were preincubated with vehicle (DMSO) or 27a for 5 min at room temperature. Arachidonic acid (5 μM) was added to induce 12-HHT formation.

Series [3] in a line: Concentrations of compound in plasma and lung in the asthma model. The series is classed as in vivo, mice. Conditions: 10 mg/kg p.o. on days 0 and 7. Here is the method: LCMs, 27a, and 27a metabolites were extracted from PMNL, medium of the liver-on-chip, murine plasma, peritoneal exudate, or homogenized murine tissue as described.[6] In brief, PBS pH 7.4, methanol, chloroform, and saline (final ratio: 14:34:35:17) were successively added together with 13d (9 pmol) as the internal standard. The organic layer was evaporated, and the extracted LCMs were dissolved in methanol.
LCMs, 27a, and 27a metabolites were separated at a flow rate of 0.8 mL/min and a column temperature of 45 °C, with acetonitrile/H2O (10:90) as mobile phase A and acetonitrile as mobile phase B, both acidified with 0.07% formic acid. […] Signal intensities were normalized to the internal standard 13d, and concentrations were calculated using external calibration curves as specified in Table S3.
BALB/c mice received 27a (p.o.) or vehicle (0.5% carboxymethylcellulose in 10% Tween 20; 0.5 mL) on days 0 and 7, 1 h (p.o) before being sensitized to ovalbumin (100 μg adsorbed to 3.3 mg of aluminum hydroxide gel, s.c., Sigma-Aldrich). […] To assess bronchial reactivity, the cumulative response to carbachol (0.001 to 3.16 μM) was measured. Bronchial relaxation was determined from the cumulative response of precontracted bronchial tissues to salbutamol. Compound 27a, LTB4, and LTB4 isomers were analyzed in plasma and lung homogenates by UPLC-MS/MS. […]

T1 sequence (P23219 24-599): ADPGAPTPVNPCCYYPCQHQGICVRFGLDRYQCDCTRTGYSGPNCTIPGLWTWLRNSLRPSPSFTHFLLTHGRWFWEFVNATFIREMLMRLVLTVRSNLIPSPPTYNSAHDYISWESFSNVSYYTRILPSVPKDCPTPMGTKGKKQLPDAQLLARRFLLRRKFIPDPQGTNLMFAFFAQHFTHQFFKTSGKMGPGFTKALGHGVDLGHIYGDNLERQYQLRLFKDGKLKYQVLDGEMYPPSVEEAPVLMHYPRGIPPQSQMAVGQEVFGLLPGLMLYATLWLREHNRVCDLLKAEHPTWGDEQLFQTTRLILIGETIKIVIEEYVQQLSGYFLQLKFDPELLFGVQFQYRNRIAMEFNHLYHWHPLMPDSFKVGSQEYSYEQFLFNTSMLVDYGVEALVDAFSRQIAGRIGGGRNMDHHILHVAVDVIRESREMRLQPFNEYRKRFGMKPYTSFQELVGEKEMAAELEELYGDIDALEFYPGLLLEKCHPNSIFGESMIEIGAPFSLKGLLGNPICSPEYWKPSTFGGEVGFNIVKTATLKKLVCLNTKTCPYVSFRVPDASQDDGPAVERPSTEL

As for `C/C(=C\CC/C(C)=C/CC[C@]1(C)CCc2c(C)c(O)c(C)c(C)c2O1)CCC=C(CO)CO` [Compound 27a, α-amplexichromanol], the 15-LOX inhibition entry in series [1] (activated human PMNL) was “not substantially inhibited”. For the same molecule, the 15-LOX product formation result in series [1] (submicromolar concentrations) is “increased by a trend”. In series [2], the “COX-1 inhibition within human platelets” value is “not substantially inhibited”. Also, the “Time course of systemic concentrations in plasma and lung” value in series [3] is “peaked at the days after administration (days 1 and 8) and then rapidly declined”.
